{
  "source": "ChEMBL document CHEMBL1138512",
  "about": "“A class of 2,4-bisanilinopyrimidine Aurora A inhibitors with unusually high selectivity against Aurora B” (J Med Chem, 2009)",
  "key": {"Aurora kinase B [1]": {"molecular_target": "T1, Aurora kinase B (Homo sapiens, UniProt Q96GD4)", "T1 sequence (Q96GD4 whole entry)": "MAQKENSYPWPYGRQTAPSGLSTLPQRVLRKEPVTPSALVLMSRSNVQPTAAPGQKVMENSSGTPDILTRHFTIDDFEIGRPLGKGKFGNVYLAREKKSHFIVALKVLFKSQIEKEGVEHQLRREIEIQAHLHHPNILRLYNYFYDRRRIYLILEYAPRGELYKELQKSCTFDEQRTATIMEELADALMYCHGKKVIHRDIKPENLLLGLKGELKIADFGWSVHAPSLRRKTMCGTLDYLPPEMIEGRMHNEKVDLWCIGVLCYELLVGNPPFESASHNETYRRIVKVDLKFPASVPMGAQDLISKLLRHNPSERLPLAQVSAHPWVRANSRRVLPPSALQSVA", "assay": "Inhibition of N-terminal flag-tagged Aurora B expressed in Escherichia coli BL21-DE3 by ELISA"}, "[2]": {"molecular_target": "T2, Cyclin-dependent kinase 2 (Homo sapiens, UniProt P24941)", "assay": "Inhibition of CDK2/cyclin A"}, "HCT-116": {"tested_on": "HCT-116", "assay": "Antiproliferative activity against human HCT116 cells after 4 days by celltiter assay", "format": "functional, cell-based", "conditions": "HCT-116, 96 h"}, "HT-29": {"tested_on": "HT-29", "assay": "Antiproliferative activity against human HT-29 cells after 4 days by celltiter assay", "format": "functional, cell-based", "conditions": "HT-29, 96 h"}, "[3]": {"molecular_target": "Beta-adrenergic receptor kinase 1 (Homo sapiens) (UniProt P25098)", "assay": "Inhibition of GRK2 at 1 uM"}, "[4]": {"molecular_target": "ALK tyrosine kinase receptor (Homo sapiens) (UniProt Q9UM73)", "assay": "Inhibition of ALK at 1 uM"}, "[5]": {"molecular_target": "Aurora kinase A (Homo sapiens) (UniProt O14965)", "sequence (O14965 whole entry)": "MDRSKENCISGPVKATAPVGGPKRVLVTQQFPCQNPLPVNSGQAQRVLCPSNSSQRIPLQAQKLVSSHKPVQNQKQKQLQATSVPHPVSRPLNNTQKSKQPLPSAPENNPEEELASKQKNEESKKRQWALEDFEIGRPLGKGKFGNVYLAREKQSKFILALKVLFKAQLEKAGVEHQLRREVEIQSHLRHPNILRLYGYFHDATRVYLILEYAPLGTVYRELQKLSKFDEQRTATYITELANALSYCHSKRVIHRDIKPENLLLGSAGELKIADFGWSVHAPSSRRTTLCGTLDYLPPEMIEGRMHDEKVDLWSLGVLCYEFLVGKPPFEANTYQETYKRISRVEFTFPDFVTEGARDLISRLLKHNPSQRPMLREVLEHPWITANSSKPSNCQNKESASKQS", "assay": "Inhibition of Aurora A at 1 uM"}, "Aurora kinase B [6]": {"molecular_target": "T1, Aurora kinase B", "assay": "Inhibition of Aurora B at 1 uM"}, "[7]": {"molecular_target": "Tyrosine-protein kinase receptor UFO (Homo sapiens) (UniProt P30530)", "assay": "Inhibition of Axl at 1 uM"}, "[8]": {"molecular_target": "Tyrosine-protein kinase BTK (Homo sapiens) (UniProt Q06187)", "assay": "Inhibition of BTK at 1 uM"}, "[9]": {"molecular_target": "Serine/threonine-protein kinase MRCK alpha (Homo sapiens) (UniProt Q5VT25)", "assay": "Inhibition of MRCKalpha at 1 uM"}, "[10]": {"molecular_target": "Cyclin-dependent kinase 1/cyclin B1 (Homo sapiens) (UniProt P06493+P14635)", "assay": "Inhibition of CDK1/cyclin B at 1 uM"}, "[11]": {"molecular_target": "T2, Cyclin-dependent kinase 2", "assay": "Inhibition of CDK2/cyclin A at 1 uM"}, "[12]": {"molecular_target": "Cyclin-dependent kinase 5/CDK5 activator 1 (Homo sapiens) (UniProt Q00535+Q15078)", "assay": "Inhibition of CDK5/p25 at 1 uM", "format": "protein-complex assay"}, "[13]": {"molecular_target": "Serine/threonine-protein kinase Chk2 (Homo sapiens) (UniProt O96017)", "assay": "Inhibition of CHK2 at 1 uM"}, "[14]": {"molecular_target": "Macrophage colony-stimulating factor 1 receptor (Homo sapiens) (UniProt P07333)", "assay": "Inhibition of FMS at 1 uM"}, "[15]": {"molecular_target": "Casein kinase I isoform gamma-2 (Homo sapiens) (UniProt P78368)", "assay": "Inhibition of CK1gamma2 at 1 uM"}, "[16]": {"molecular_target": "Dual specificity tyrosine-phosphorylation-regulated kinase 3 (Homo sapiens) (UniProt O43781)", "assay": "Inhibition of DYRK3 at 1 uM"}, "[17]": {"molecular_target": "Eukaryotic elongation factor 2 kinase (Homo sapiens) (UniProt O00418)", "assay": "Inhibition of EEF2K at 1 uM"}, "[18]": {"molecular_target": "Epidermal growth factor receptor (Homo sapiens) (UniProt P00533)", "assay": "Inhibition of ErbB1 at 1 uM"}, "[19]": {"molecular_target": "Ephrin type-A receptor 1 (Homo sapiens) (UniProt P21709)", "assay": "Inhibition of EPHA1 at 1 uM"}, "[20]": {"molecular_target": "Ephrin type-B receptor 1 (Homo sapiens) (UniProt P54762)", "sequence (P54762 whole entry)": "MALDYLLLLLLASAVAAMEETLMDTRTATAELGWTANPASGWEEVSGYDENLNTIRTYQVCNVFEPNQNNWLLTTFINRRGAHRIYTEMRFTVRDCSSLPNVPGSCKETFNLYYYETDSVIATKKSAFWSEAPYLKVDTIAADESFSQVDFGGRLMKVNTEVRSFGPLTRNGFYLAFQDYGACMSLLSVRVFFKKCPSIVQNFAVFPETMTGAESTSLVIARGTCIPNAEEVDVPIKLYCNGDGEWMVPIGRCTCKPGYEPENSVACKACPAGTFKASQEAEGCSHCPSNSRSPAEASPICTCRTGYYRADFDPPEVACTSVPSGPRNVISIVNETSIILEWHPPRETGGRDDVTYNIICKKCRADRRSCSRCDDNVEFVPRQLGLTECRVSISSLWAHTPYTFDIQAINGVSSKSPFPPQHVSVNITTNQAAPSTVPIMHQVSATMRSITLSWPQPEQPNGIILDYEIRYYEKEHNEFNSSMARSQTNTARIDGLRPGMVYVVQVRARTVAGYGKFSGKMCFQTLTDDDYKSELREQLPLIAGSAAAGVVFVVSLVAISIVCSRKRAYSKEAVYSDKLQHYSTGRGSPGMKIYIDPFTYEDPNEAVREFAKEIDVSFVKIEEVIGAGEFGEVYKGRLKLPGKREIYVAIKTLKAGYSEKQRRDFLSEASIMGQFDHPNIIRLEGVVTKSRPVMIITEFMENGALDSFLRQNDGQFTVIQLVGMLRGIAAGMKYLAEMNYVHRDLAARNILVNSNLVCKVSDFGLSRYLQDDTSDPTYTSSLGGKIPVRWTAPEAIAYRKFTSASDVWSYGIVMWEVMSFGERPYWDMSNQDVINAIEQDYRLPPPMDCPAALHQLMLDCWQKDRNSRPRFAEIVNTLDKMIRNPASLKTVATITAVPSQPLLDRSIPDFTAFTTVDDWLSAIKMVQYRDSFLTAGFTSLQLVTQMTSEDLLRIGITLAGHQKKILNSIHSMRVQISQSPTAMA", "assay": "Inhibition of EPHB1 at 1 uM"}, "[21]": {"molecular_target": "Fibroblast growth factor receptor 1 (Homo sapiens) (UniProt P11362)", "assay": "Inhibition of FGFR1 at 1 uM"}, "[22]": {"molecular_target": "Serine/threonine-protein kinase mTOR (Homo sapiens) (UniProt P42345)", "assay": "Inhibition of mTOR at 1 uM"}, "[23]": {"molecular_target": "G protein-coupled receptor kinase 4 (Homo sapiens) (UniProt P32298)", "assay": "Inhibition of GRK4 at 1 uM"}, "[24]": {"molecular_target": "Inhibitor of nuclear factor kappa-B kinase subunit beta (Homo sapiens) (UniProt O14920)", "assay": "Inhibition of IKK-beta at 1 uM"}, "[25]": {"molecular_target": "Tyrosine-protein kinase JAK2 (Homo sapiens) (UniProt O60674)", "assay": "Inhibition of JAK2 at 1 uM"}, "[26]": {"molecular_target": "Vascular endothelial growth factor receptor 2 (Homo sapiens) (UniProt P35968)", "assay": "Inhibition of VEGFR2 at 1 uM"}, "[27]": {"molecular_target": "Dual specificity mitogen-activated protein kinase kinase 1 (Homo sapiens) (UniProt Q02750)", "sequence (Q02750 whole entry)": "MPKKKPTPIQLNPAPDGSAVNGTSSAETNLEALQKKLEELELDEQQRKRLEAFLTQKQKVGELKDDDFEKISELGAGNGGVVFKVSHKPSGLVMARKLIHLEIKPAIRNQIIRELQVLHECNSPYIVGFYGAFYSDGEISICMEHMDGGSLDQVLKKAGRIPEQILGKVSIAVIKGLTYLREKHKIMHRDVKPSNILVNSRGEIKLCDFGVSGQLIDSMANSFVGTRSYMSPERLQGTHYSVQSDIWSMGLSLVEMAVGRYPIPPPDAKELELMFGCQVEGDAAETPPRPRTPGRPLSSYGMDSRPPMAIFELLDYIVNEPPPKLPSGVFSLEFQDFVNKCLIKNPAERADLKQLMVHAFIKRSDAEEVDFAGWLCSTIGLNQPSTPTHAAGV", "assay": "Inhibition of MEK1 at 1 uM"}, "[28]": {"molecular_target": "Mitogen-activated protein kinase 1 (Homo sapiens) (UniProt P28482)", "assay": "Inhibition of ERK2 at 1 uM"}, "[29]": {"molecular_target": "MAP kinase-activated protein kinase 2 (Homo sapiens) (UniProt P49137)", "sequence (P49137 whole entry, looked up)": "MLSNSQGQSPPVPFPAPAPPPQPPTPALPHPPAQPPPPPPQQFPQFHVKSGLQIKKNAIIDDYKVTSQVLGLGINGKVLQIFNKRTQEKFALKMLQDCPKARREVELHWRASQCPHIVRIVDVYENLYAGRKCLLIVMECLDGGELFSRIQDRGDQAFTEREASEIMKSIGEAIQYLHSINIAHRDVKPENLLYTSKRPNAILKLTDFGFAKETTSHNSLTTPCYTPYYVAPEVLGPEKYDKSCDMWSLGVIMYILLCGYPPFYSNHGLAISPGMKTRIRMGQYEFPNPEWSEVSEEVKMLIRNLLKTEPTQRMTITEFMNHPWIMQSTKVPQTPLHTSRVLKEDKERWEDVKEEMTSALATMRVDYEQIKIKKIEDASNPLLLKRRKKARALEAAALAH", "assay": "Inhibition of MAPKAPK2 at 1 uM"}, "[30]": {"molecular_target": "Hepatocyte growth factor receptor (Homo sapiens) (UniProt P08581)", "assay": "Inhibition of c-Met at 1 uM"}, "[31]": {"molecular_target": "Serine/threonine-protein kinase Nek2 (Homo sapiens) (UniProt P51955)", "sequence (P51955 whole entry)": "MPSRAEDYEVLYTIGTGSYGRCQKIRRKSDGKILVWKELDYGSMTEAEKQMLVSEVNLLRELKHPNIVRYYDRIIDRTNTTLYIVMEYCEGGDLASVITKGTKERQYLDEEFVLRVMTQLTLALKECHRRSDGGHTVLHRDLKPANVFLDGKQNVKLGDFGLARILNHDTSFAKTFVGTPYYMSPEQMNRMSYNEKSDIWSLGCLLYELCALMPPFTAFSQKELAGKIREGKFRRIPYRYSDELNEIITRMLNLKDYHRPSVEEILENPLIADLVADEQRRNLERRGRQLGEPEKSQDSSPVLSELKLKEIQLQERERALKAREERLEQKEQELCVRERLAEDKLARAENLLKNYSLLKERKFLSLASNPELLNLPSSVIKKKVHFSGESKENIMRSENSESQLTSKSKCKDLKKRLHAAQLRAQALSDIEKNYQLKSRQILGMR", "assay": "Inhibition of NEK2 at 1 uM"}, "[32]": {"molecular_target": "Serine/threonine-protein kinase Nek6 (Homo sapiens) (UniProt Q9HC98)", "assay": "Inhibition of NEK6 at 1 uM"}, "[33]": {"molecular_target": "Serine/threonine-protein kinase Nek9 (Homo sapiens) (UniProt Q8TD19)", "assay": "Inhibition of NEK9 at 1 uM"}, "[34]": {"molecular_target": "High affinity nerve growth factor receptor (Homo sapiens) (UniProt P04629)", "sequence (P04629 33-796 limits assumed)": "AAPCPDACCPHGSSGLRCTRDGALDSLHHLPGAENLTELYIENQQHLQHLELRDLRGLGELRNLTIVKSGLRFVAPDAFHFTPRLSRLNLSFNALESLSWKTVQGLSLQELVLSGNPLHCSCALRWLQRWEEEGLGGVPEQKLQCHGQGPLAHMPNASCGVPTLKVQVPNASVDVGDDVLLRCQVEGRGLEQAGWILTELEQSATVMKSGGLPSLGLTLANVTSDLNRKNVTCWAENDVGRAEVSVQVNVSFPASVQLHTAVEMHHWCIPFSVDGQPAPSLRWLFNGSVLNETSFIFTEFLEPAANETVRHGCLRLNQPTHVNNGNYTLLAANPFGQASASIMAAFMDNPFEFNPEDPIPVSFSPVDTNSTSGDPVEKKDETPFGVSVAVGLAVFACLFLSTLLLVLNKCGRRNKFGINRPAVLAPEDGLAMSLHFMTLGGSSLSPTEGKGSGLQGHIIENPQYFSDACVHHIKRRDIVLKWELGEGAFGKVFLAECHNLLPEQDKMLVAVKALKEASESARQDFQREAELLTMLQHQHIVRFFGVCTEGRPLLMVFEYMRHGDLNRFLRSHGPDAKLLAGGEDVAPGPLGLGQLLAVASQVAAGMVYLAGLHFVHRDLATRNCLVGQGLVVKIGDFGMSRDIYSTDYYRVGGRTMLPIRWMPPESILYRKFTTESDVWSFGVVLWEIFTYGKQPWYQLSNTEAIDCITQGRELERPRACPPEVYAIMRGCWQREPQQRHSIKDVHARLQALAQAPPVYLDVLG", "assay": "Inhibition of TRKA at 1 uM"}, "[35]": {"molecular_target": "Serine/threonine-protein kinase PAK 3 (Homo sapiens) (UniProt O75914)", "assay": "Inhibition of PAK3 at 1 uM"}, "[36]": {"molecular_target": "Phosphorylase b kinase gamma catalytic chain, skeletal muscle/heart isoform (Homo sapiens) (UniProt Q16816)", "sequence (Q16816 whole entry, looked up, canonical isoform)": "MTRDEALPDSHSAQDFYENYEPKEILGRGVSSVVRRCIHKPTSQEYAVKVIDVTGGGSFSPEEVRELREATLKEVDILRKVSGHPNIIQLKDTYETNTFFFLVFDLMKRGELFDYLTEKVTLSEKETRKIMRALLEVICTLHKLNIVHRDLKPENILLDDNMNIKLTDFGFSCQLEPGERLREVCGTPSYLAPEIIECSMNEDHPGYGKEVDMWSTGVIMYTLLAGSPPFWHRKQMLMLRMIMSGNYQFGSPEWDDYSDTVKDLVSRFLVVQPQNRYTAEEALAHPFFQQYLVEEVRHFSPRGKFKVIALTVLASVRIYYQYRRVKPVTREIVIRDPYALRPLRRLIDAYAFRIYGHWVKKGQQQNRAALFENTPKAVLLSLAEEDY", "assay": "Inhibition of PHKG1 at 1 uM"}, "[37]": {"molecular_target": "cAMP-dependent protein kinase catalytic subunit alpha (Homo sapiens) (UniProt P17612)", "assay": "Inhibition of PRKACA at 1 uM"}, "[38]": {"molecular_target": "Protein kinase C alpha type (Homo sapiens) (UniProt P17252)", "assay": "Inhibition of PKCalpha at 1 uM"}, "[39]": {"molecular_target": "Rho-associated protein kinase 1 (Homo sapiens) (UniProt Q13464)", "assay": "Inhibition of ROCK1 at 1 uM"}, "[40]": {"molecular_target": "Ribosomal protein S6 kinase alpha-1 (Homo sapiens) (UniProt Q15418)", "assay": "Inhibition of RSK1 at 1 uM"}, "[41]": {"molecular_target": "Ribosomal protein S6 kinase beta-1 (Homo sapiens) (UniProt P23443)", "assay": "Inhibition of p70S6K at 1 uM"}, "[42]": {"molecular_target": "Serine/threonine-protein kinase Sgk1 (Homo sapiens) (UniProt O00141)", "assay": "Inhibition of SGK1 at 1 uM"}, "[43]": {"molecular_target": "Proto-oncogene tyrosine-protein kinase Src (Homo sapiens) (UniProt P12931)", "sequence (P12931 2-536 limits assumed)": "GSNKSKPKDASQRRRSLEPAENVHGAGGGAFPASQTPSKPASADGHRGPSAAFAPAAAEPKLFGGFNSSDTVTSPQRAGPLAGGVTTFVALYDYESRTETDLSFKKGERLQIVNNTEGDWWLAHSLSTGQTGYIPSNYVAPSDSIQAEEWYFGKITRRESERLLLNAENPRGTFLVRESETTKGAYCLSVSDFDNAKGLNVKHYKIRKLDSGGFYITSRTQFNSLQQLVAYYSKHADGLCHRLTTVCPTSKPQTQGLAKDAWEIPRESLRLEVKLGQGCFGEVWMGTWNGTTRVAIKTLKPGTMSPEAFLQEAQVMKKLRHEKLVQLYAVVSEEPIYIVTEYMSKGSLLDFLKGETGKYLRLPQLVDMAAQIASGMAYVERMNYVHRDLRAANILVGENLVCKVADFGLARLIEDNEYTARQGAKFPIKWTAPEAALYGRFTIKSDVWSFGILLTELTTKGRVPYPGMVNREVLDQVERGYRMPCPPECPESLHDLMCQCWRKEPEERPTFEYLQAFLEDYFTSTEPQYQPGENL", "assay": "Inhibition of SRC at 1 uM"}, "Aurora kinase B [44]": {"molecular_target": "Aurora kinase B (Homo sapiens, UniProt Q96GD4, E161T)", "sequence (Q96GD4 whole entry E161T)": "as the sequence (Q96GD4 whole entry) above, with E161T counted along it", "assay": "Inhibition of N-terminal flag-tagged Aurora B E161T mutant expressed in Escherichia coli BL21-DE3"}, "[45]": {"molecular_target": "Mitogen-activated protein kinase kinase kinase kinase 2 (Homo sapiens) (UniProt Q12851)", "assay": "Inhibition of GCK at 1 uM"}, "[46]": {"molecular_target": "3-phosphoinositide-dependent protein kinase 1 (Homo sapiens) (UniProt O15530)", "assay": "Inhibition of PDK1 at 1 uM"}},
  "data": [
    {"smiles": "CC(=O)N1CCN(C(=O)Cc2ccc(Nc3ncc(F)c(Nc4ccc(C(=O)Nc5ccccc5Cl)cc4)n3)cc2)CC1", "values": [
      {"measurement": "IC50", "setting": "Aurora kinase B [1]", "result": 3.7, "unit": "µM"},
      {"measurement": "IC50", "setting": "[2]", "result": "> 16", "unit": "µM"},
      {"measurement": "IC50", "setting": "HCT-116", "result": 0.64, "unit": "µM"},
      {"measurement": "IC50", "setting": "HT-29", "result": 6.2, "unit": "µM"},
      {"measurement": "inhibition", "setting": "[3]", "result": 8, "unit": "%"},
      {"measurement": "inhibition", "setting": "[4]", "result": 21, "unit": "%"},
      {"measurement": "inhibition", "setting": "[5]", "result": 103, "unit": "%"},
      {"measurement": "inhibition", "setting": "Aurora kinase B [6]", "result": 59, "unit": "%"},
      {"measurement": "inhibition", "setting": "[7]", "result": 46, "unit": "%"},
      {"measurement": "inhibition", "setting": "[8]", "result": 46, "unit": "%"},
      {"measurement": "inhibition", "setting": "[9]", "result": 11, "unit": "%"},
      {"measurement": "inhibition", "setting": "[10]", "result": 15, "unit": "%"},
      {"measurement": "inhibition", "setting": "[11]", "result": 15, "unit": "%"},
      {"measurement": "inhibition", "setting": "[12]", "result": 7, "unit": "%"},
      {"measurement": "inhibition", "setting": "[13]", "result": 12, "unit": "%"},
      {"measurement": "inhibition", "setting": "[14]", "result": 79, "unit": "%"},
      {"measurement": "inhibition", "setting": "[15]", "result": 10, "unit": "%"},
      {"measurement": "inhibition", "setting": "[16]", "result": 5, "unit": "%"},
      {"measurement": "inhibition", "setting": "[17]", "result": 5, "unit": "%"},
      {"measurement": "inhibition", "setting": "[18]", "result": 5, "unit": "%"},
      {"measurement": "inhibition", "setting": "[19]", "result": 34, "unit": "%"},
      {"measurement": "inhibition", "setting": "[20]", "result": 25, "unit": "%"},
      {"measurement": "inhibition", "setting": "[21]", "result": 16, "unit": "%"},
      {"measurement": "inhibition", "setting": "[22]", "result": 11, "unit": "%"},
      {"measurement": "inhibition", "setting": "[23]", "result": -1, "unit": "%"},
      {"measurement": "inhibition", "setting": "[24]", "result": 39, "unit": "%"},
      {"measurement": "inhibition", "setting": "[25]", "result": 78, "unit": "%"},
      {"measurement": "inhibition", "setting": "[26]", "result": 76, "unit": "%"},
      {"measurement": "inhibition", "setting": "[27]", "result": 21, "unit": "%"},
      {"measurement": "inhibition", "setting": "[28]", "result": 11, "unit": "%"},
      {"measurement": "inhibition", "setting": "[29]", "result": 9, "unit": "%"},
      {"measurement": "inhibition", "setting": "[30]", "result": 14, "unit": "%"},
      {"measurement": "inhibition", "setting": "[31]", "result": 25, "unit": "%"},
      {"measurement": "inhibition", "setting": "[32]", "result": 8, "unit": "%"},
      {"measurement": "inhibition", "setting": "[33]", "result": 17, "unit": "%"},
      {"measurement": "inhibition", "setting": "[34]", "result": 67, "unit": "%"},
      {"measurement": "inhibition", "setting": "[35]", "result": 4, "unit": "%"},
      {"measurement": "inhibition", "setting": "[36]", "result": 18, "unit": "%"},
      {"measurement": "inhibition", "setting": "[37]", "result": 7, "unit": "%"},
      {"measurement": "inhibition", "setting": "[38]", "result": 15, "unit": "%"},
      {"measurement": "inhibition", "setting": "[39]", "result": -8, "unit": "%"},
      {"measurement": "inhibition", "setting": "[40]", "result": 23, "unit": "%"},
      {"measurement": "inhibition", "setting": "[41]", "result": 17, "unit": "%"},
      {"measurement": "inhibition", "setting": "[42]", "result": 7, "unit": "%"},
      {"measurement": "inhibition", "setting": "[43]", "result": 30, "unit": "%"},
      {"measurement": "IC50", "setting": "Aurora kinase B [44]", "result": 0.057, "unit": "µM"},
      {"measurement": "inhibition", "setting": "[45]", "result": 10, "unit": "%"},
      {"measurement": "inhibition", "setting": "[46]", "result": 19, "unit": "%"}
    ]}
  ]
}
